US20160008777A1, “PHARMACEUTICAL COMPOUNDING KIT” (Novotec Consulting Inc., priority 2014, published 2016)
Values joined by “and” are separate entries in the source; they are usually repeats but may differ in a detail not shown here. Equal entries are not always repeated. Structures can show the parent of a compound that is named as a salt.

Assay: Content uniformity of the Example 2 lotion: product from ten individual pumps weighed and assayed for content of each drug
Type: physicochemical
Conditions: for average amount contained in a gram of lotion product: per gram of lotion; for assay values, % of label claim / USP Acceptance Value (AV): ten pump samples; for USP Acceptance Value (AV): limit of 15
Method: The content uniformity of the lotion was determined by assaying product from ten individual pumps spaced equally over the content of the bottle. After the pump was primed, product from ten pumps was collected by taking product from approximately every tenth pump. The product from each pump was weighed and assayed for content of each drug.

[1] = Example 2 lotion, average ± standard deviation of ten pump samples
[2] = Example 2 lotion, average ± standard deviation of ten pump samples, label claim 20 mg/g
[3] = Example 2 lotion, individual pump samples No. 1-10, label claim 20 mg/g (2.0%), dihydrochloride
[4] = Example 2 lotion, individual pump samples No. 1-10, label claim 20 mg/g (2.0%)

average amount contained in lotion product, % w/w (Example 2 lotion) [% w/w] | Levocitirizine dihydrochloride Wt. (mg/g), Average [1] [mg/g] | Levocitirizine dihydrochloride % Label Claim, Average [2] [%] | average amount contained in a gram of lotion product (Example 2 lotion) [mg] | assay values, % of label claim (Example 2 lotion) | USP Acceptance Value (AV) (Example 2 lotion) | Mupirocin Wt. (mg/g), Average [1] [mg/g] | Mupirocin % Label Claim, Average [2] [%] | Cyanocobalamin Wt. (mg/g), Average [1] [mg/g] | Cyanocobalamin % Label Claim, Average (Example 2 lotion, average ± standard deviation of ten pump samples, label claim 0.7 mg/g) [%] | Molecule | Levocitirizine dihydrochloride % Label Claim [3] | Levocitirizine dihydrochloride Wt. [3] | Mupirocin % Label Claim [4] | Mupirocin Wt. [4] | Cyanocobalamin Wt. (Example 2 lotion at maximum strength, individual pump samples No. 1-10, label claim 0.7 mg/g (0.07%)) | Cyanocobalamin % Label Claim (Example 2 lotion, individual pump samples No. 1-10, label claim 0.7 mg/g (0.07%))
1.97 | 19.76 ± 0.55 | 98.79 ± 2.77 | 19.76 | 90-110% | 6.66 | – | – | – | – | O=C(O)COCCN1CCN([C@H](c2ccccc2)c2ccc(Cl)cc2)CC1 [Levocitirizine dihydrochloride, levocetirizine dihydrochloride] | 97.15% and 96.00% and 102.10% and 103.90% and 99.90% and 101.10% and 96.80% and 95.80% and 96.75% and 97.75% | 19.43 mg/g and 19.32 mg/g and 20.42 mg/g and 20.78 mg/g and 19.98 mg/g and 20.22 mg/g and 19.36 mg/g and 19.16 mg/g and 19.35 mg/g and 19.55 mg/g | – | – | – | –
1.93 | – | – | 19.32 | 90-110% | 6.44 | 19.32 ± 0.38 | 96.62 ± 1.90 | – | – | C/C(=C\C(=O)OCCCCCCCCC(=O)O)C[C@@H]1OC[C@H](C[C@@H]2O[C@H]2[C@@H](C)[C@H](C)O)[C@@H](O)[C@H]1O [Mupirocin, mupirocin] | – | – | 99.60% and 96.00% (2×) and 96.10% and 95.85% and 98.55% and 95.70% and 92.90% and 98.45% and 97.00% | 19.92 mg/g and 19.20 mg/g (2×) and 19.22 mg/g and 19.17 mg/g and 19.71 mg/g and 19.14 mg/g and 18.58 mg/g and 19.69 mg/g and 19.40 mg/g | – | –
0.07 | – | – | 0.697 | 90-110% | 4.45 | – | – | 0.697 ± 0.013 | 99.54 ± 1.86 | cyanocobalamin | – | – | – | – | 0.723 mg/g and 0.711 mg/g and 0.694 mg/g and 0.696 mg/g (2×) and 0.682 mg/g (2×) and 0.701 mg/g and 0.684 mg/g and 0.699 mg/g | 103.29% and 101.57% and 99.14% and 99.43% (2×) and 97.43% (2×) and 100.14% and 97.71% and 99.86%
